Test results published in article PMC5601486, “Identification of 4-phenylquinolin-2(1H)-one as a specific allosteric inhibitor of Akt” (Scientific Reports, 2017).

Legend:
SGK1 = assay: Western blot of SGK1 S422 phosphorylation; format: cell-based, Mouse; settings: all concentrations tested including 80 µM
Procedure: (§1) Neuro 2A cells were seeded in 12-well plates in DMEM containing 5% FBS for 24 hr.
(§2) After overnight serum starvation (in 0% FBS DMEM), cells were incubated for 30 min at 37 °C with G7 or LY294002 or Torin 1 (Sigma Aldrich) at various concentrations, or DMSO control. IGF-1 was added to each well at a final concentration of 100 ng/mL. After 30-min incubation cells were washed with cold PBS and lysed with 50 µL lysis buffer containing 1% Triton X-100 and protease/phosphatase inhibitors (Cell Signaling Technology) or RIPA buffer (Santa Cruz Biotech). Samples were electrophoresed in 4–12% Bis-Tris gels (Life Technologies) at 150 V using MOPS SDS running buffer. Proteins were transferred electrophoretically to a PVDF or nitrocellulose membrane. For detection of cleaved […]
(§3) caspase 3 a Trans-Blot Turbo Transfer System (Bio-Rad, 25 V for 25 min) with PVDF membrane were used. […]
(§4) anti- GAPDH (14C10) antibody (#2118) (all antibodies were from Cell Signaling Technology unless indicated, 1:1000 dilution was used) at 4°C overnight, washed three times with TBS-T, then incubated with peroxidase-conjugated secondary antibody (Sigma-Aldrich) for 1 hr at room temperature. […] Band intensity was quantitated using Kodak 1D imaging analysis software. […]

PKA = assay: Western blot of PKA phosphorylation; format: cell-based, Mouse; settings: Neuro 2A cells
Procedure: as §1, §2, §3, §4

Neuro 2A cells = assay: MTS cell proliferation assay; format: cell-based, Mouse; settings: 1 day
Procedure: Neuro 2A cells or NIH/3T3 cells (ATCC) were seeded at various confluency in a 96-well plate in 100 µL DMEM containing 5% FBS or 10% FBS with 1% penicillin streptomucin, respectively, at 37 °C in a 5% CO2 and 95% humidity incubator for 18 hr. To each well 1 µL inhibitor with various concentrations or DMSO was added. The final concentrations of the tested inhibitors were 0, 5, 10, 20, 40 and 80 µM for G7 and LY, and 0, 5, 10, 20, 40 and 80 nM for Torin1, based on their respective IC50 values (~µM for G7 and LY and ~ nM for Torin 1). After 24 hr, 20 µL of CellTiter 96® AQueous One Solution Reagent (Promega) were added. The plate was placed in the incubator for 2 h and absorbance at 490 nm was measured with a Synergy HT Microplate Reader (Bio-Tek).

CDC2L5 = test system: T1, CDC2L5; assay: KINOMEscan; format: binding, human; settings: 50000 nM
T1 construct: purchased DiscoveRx KINOMEscan

ACVR1B = assay: KINOMEscan; settings: 50000 nM
Procedure: KINOMEscan™ selectivity screen
(§5) The assay was perfor med at DiscoveRx Corporation according the methods published previously5. Briefly, Kinase-tagged T7 phage strains were grown in parallel in an E. coli host derived from the BL21 strain. E. coli were grown to log-phase and infected with T7 phage from a frozen stock and incubated with shaking at 32°C until lysis (90-150 minutes). The kinases were produced in HEK-293 cells and subsequently tagged with DNA for qPCR detection. Streptavidin-coated magnetic beads were treated with biotinylated small molecule ligands to generate affinity resins for kinase
(§6) inhibitor or DMSO control was performed in polypropylene 384-well plates for 1 hr at room temperature. After wash with PBS buffer containing 0.05% Tween 20, the beads were incubated in elution buffer (PBS containing 0.05 % Tween 20 and 0.5 μM non-biotinylated affinity ligand) for 30 minutes at room temperature. The kinase concentration in the eluates was measured by qPCR.

MAPKAPK2 = assay: KINOMEscan; settings: 50000 nM
Procedure: KINOMEscan™ selectivity screen
as §5, §6

PIP5K2B = assay: KINOMEscan; settings: 50000 nM
Procedure: KINOMEscan™ selectivity screen
as §5, §6

FGFR4 = assay: KINOMEscan; settings: 50000 nM
Procedure: KINOMEscan™ selectivity screen
(§7) The assay was perfor med at DiscoveRx Corporation according the methods published previously5. […] The kinases were produced in HEK-293 cells and subsequently tagged with DNA for qPCR detection. Streptavidin-coated magnetic beads were treated with biotinylated small molecule ligands to generate affinity resins for kinase
as §6

GRK4 = assay: KINOMEscan; settings: 50000 nM
Procedure: KINOMEscan™ selectivity screen
as §7, §6

LKB1 = assay: KINOMEscan; settings: 50000 nM
Procedure: KINOMEscan™ selectivity screen
as §7, §6

PCTK3 = assay: KINOMEscan; settings: 50000 nM
Procedure: KINOMEscan™ selectivity screen
as §5, §6

SYK = assay: KINOMEscan; settings: 50000 nM
Procedure: KINOMEscan™ selectivity screen
as §5, §6

FES = assay: KINOMEscan; settings: 50000 nM
Procedure: KINOMEscan™ selectivity screen
(§8) Briefly, Kinase-tagged T7 phage strains were grown in parallel in an E. coli host derived from the BL21 strain. E. coli were grown to log-phase and infected with T7 phage from a frozen stock and incubated with shaking at 32°C until lysis (90-150 minutes). The kinases were produced in HEK-293 cells and subsequently tagged with DNA for qPCR detection. Streptavidin-coated magnetic beads were treated with biotinylated small molecule ligands to generate affinity resins for kinase
as §6

EPHB1 = assay: KINOMEscan; settings: 50000 nM
Procedure: KINOMEscan™ selectivity screen
as §8, §6

PHKG2 = assay: KINOMEscan; settings: 50000 nM
Procedure: KINOMEscan™ selectivity screen
as §8, §6

PRKD3 = assay: KINOMEscan; settings: 50000 nM
Procedure: KINOMEscan™ selectivity screen
as §5, §6

CDK3 = assay: KINOMEscan; settings: 50000 nM
Procedure: KINOMEscan™ selectivity screen
as §8, §6

CAMK1D = assay: KINOMEscan; settings: 50000 nM
Procedure: as §8, §6

CAMK2A = assay: KINOMEscan; settings: 50000 nM
Procedure: KINOMEscan™ selectivity screen
as §5, §6

OSR1 = assay: KINOMEscan; settings: 50000 nM
Procedure: KINOMEscan™ selectivity screen
as §8, §6

LOK = assay: KINOMEscan; settings: 50000 nM
Procedure: KINOMEscan™ selectivity screen
as §5, §6

FLT1 = assay: KINOMEscan; settings: 50000 nM
Procedure: KINOMEscan™ selectivity screen
as §5, §6

DYRK2 = assay: KINOMEscan; settings: 50000 nM
Procedure: KINOMEscan™ selectivity screen
as §5, §6

ICK = assay: KINOMEscan; settings: 50000 nM
Procedure: KINOMEscan™ selectivity screen
as §8, §6

YSK1 = assay: KINOMEscan; settings: 50000 nM
Procedure: KINOMEscan™ selectivity screen
as §5, §6

MKNK1 = assay: KINOMEscan; settings: 50000 nM
Procedure: KINOMEscan™ selectivity screen
as §8, §6

INSRR = assay: KINOMEscan; settings: 50000 nM
Procedure: KINOMEscan™ selectivity screen
as §5, §6

DAPK1 = assay: KINOMEscan; settings: 50000 nM
Procedure: KINOMEscan™ selectivity screen
as §5, §6

[1] = test system: ABL1(H396P)-nonphosphorylated; assay: KINOMEscan; settings: 50000 nM
Procedure: KINOMEscan™ selectivity screen
as §5, §6

[2] = test system: JAK2(JH1domain-catalytic); assay: KINOMEscan; settings: 50000 nM
Procedure: KINOMEscan™ selectivity screen
as §8, §6

RIOK3 = assay: KINOMEscan; settings: 50000 nM
Procedure: KINOMEscan™ selectivity screen
as §5, §6

INSR = assay: KINOMEscan; settings: 50000 nM
Procedure: KINOMEscan™ selectivity screen
as §7, §6

SNARK = assay: KINOMEscan; settings: 50000 nM
Procedure: KINOMEscan™ selectivity screen
as §5, §6

Oc1cc(-c2ccccc2)c2ccccc2n1 [G7, 4-phenylquinolin-2(1H)-one]
S422 phosphorylation of SGK1 (SGK1): did not inhibit
phosphorylation (activation status) of PKA (PKA): did not alter
proliferation of Neuro 2A cells (Neuro 2A cells): inhibited the proliferation
Percent Control (CDC2L5): 87%
Percent Control (ACVR1B): 100%
Percent Control (MAPKAPK2): 100%
Percent Control (PIP5K2B): 100%
Percent Control (FGFR4): 96%
Percent Control (GRK4): 96%
Percent Control (LKB1): 96%
Percent Control (PCTK3): 96%
Percent Control (SYK): 95%
Percent Control (FES): 92%
Percent Control (EPHB1): 91%
Percent Control (PHKG2): 91%
Percent Control (PRKD3): 89%
Percent Control (CDK3): 88%
Percent Control (CAMK1D): 87%
Percent Control (CAMK2A): 87%
Percent Control (OSR1): 87%
Percent Control (LOK): 82%
Percent Control (FLT1): 81%
Percent Control (DYRK2): 72%
Percent Control (ICK): 71%
Percent Control (YSK1): 70%
Percent Control (MKNK1): 69%
Percent Control (INSRR): 64%
Percent Control (DAPK1): 63%
Percent Control [1]: 62%
Percent Control [2]: 61%
Percent Control (RIOK3): 58%
Percent Control (INSR): 56%
Percent Control (SNARK): 45%
